Assay results taken from the kinase profiling compilation of Christmann-Franck et al. (2016).

What was measured:
Assay in all cases: radiometric filter-binding kinase assay, Kinase HotSpot
Settings in all cases: compound 0.5 µM; ATP 10 µM
CAMK2B (human) = CAMK2B (human) (UniProt Q13554)
LTK (human) = LTK (human) (UniProt P29376)
NTRK2 (human) = NTRK2 (human) (UniProt Q16620)
ADRBK2 (human) = ADRBK2 (human) (UniProt P35626)
CSNK1G3 (human) = CSNK1G3 (human) (UniProt Q9Y6M4)
CAMK1 (human) = CAMK1 (human) (UniProt Q14012)
FGFR2 (human) = FGFR2 (human) (UniProt P21802)
EPHB2 (human) = EPHB2 (human) (UniProt P29323)
MAPK11 (human) = MAPK11 (human) (UniProt Q15759)
STK3 (human) = STK3 (human) (UniProt Q13188)
CDC42BPA (human) = CDC42BPA (human) (UniProt Q5VT25)
CSNK1G1 (human) = CSNK1G1 (human) (UniProt Q9HCP0)
CSNK1D (human) = CSNK1D (human) (UniProt P48730)
STK24 (human) = STK24 (human) (UniProt Q9Y6E0)
EPHA7 (human) = EPHA7 (human) (UniProt Q15375)
MAP3K2 (human) = MAP3K2 (human) (UniProt Q9Y2U5)
MYLK (human) = MYLK (human) (UniProt Q15746)
HIPK1 (human) = HIPK1 (human) (UniProt Q86Z02)
FRK (human) = FRK (human) (UniProt P42685)
PNCK (human) = PNCK (human) (UniProt Q6P2M8)
HIPK4 (human) = HIPK4 (human) (UniProt Q8NE63)
SLK (human) = SLK (human) (UniProt Q9H2G2)
CAMK2A (human) = CAMK2A (human) (UniProt Q9UQM7)
PDPK1 (human) = PDPK1 (human) (UniProt O15530)
FER (human) = FER (human) (UniProt P16591)
[1] = target: TYK2 JH1 catalytic (human) (UniProt P29597)
CAMK1D (human) = CAMK1D (human) (UniProt Q8IU85)
MAPKAPK5 (human) = MAPKAPK5 (human) (UniProt Q8IW41)
ERBB4 (human) = ERBB4 (human) (UniProt Q15303)
CDK2 CCNA2 (human) = CDK2 CCNA2 (human) (UniProt P24941+P20248)
RIPK2 (human) = RIPK2 (human) (UniProt O43353)
MAP4K2 (human) = MAP4K2 (human) (UniProt Q12851)
EPHA3 (human) = EPHA3 (human) (UniProt P29320)
TAOK2 (human) = TAOK2 (human) (UniProt Q9UL54)
EPHA4 (human) = EPHA4 (human) (UniProt P54764)
CDK1 CCNB1 (human) = CDK1 CCNB1 (human) (UniProt P06493+P14635)
SGK3 (human) = SGK3 (human) (UniProt Q96BR1)
MAPK14 (human) = MAPK14 (human) (UniProt Q16539)
TGFBR1 (human) = TGFBR1 (human) (UniProt P36897)
ULK1 (human) = ULK1 (human) (UniProt O75385)
IGF1R (human) = IGF1R (human) (UniProt P08069)
MAPK12 (human) = MAPK12 (human) (UniProt P53778)

CAMK1 (human), sequence (Q14012 whole entry, looked up): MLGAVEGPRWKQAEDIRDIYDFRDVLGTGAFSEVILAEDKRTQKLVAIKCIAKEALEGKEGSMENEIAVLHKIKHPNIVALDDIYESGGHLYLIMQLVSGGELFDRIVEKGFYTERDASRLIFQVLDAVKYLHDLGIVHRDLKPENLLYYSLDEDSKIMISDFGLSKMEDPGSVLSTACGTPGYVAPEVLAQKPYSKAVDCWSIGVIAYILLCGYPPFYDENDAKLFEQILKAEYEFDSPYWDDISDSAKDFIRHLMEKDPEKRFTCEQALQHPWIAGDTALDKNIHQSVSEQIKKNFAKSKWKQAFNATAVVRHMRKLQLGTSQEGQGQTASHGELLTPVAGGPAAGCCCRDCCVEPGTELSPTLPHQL
MAPK14 (human), sequence (Q16539 whole entry, looked up): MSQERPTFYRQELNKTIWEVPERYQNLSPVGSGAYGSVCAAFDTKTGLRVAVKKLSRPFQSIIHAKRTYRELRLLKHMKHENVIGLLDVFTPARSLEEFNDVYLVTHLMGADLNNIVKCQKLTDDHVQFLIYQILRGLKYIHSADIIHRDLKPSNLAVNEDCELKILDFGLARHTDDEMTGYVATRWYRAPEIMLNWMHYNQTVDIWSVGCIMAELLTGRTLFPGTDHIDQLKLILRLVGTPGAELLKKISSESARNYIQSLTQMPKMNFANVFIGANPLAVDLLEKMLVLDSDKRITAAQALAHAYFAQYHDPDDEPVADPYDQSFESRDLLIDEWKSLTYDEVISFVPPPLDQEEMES
HIPK1 (human), sequence (Q86Z02 whole entry, looked up): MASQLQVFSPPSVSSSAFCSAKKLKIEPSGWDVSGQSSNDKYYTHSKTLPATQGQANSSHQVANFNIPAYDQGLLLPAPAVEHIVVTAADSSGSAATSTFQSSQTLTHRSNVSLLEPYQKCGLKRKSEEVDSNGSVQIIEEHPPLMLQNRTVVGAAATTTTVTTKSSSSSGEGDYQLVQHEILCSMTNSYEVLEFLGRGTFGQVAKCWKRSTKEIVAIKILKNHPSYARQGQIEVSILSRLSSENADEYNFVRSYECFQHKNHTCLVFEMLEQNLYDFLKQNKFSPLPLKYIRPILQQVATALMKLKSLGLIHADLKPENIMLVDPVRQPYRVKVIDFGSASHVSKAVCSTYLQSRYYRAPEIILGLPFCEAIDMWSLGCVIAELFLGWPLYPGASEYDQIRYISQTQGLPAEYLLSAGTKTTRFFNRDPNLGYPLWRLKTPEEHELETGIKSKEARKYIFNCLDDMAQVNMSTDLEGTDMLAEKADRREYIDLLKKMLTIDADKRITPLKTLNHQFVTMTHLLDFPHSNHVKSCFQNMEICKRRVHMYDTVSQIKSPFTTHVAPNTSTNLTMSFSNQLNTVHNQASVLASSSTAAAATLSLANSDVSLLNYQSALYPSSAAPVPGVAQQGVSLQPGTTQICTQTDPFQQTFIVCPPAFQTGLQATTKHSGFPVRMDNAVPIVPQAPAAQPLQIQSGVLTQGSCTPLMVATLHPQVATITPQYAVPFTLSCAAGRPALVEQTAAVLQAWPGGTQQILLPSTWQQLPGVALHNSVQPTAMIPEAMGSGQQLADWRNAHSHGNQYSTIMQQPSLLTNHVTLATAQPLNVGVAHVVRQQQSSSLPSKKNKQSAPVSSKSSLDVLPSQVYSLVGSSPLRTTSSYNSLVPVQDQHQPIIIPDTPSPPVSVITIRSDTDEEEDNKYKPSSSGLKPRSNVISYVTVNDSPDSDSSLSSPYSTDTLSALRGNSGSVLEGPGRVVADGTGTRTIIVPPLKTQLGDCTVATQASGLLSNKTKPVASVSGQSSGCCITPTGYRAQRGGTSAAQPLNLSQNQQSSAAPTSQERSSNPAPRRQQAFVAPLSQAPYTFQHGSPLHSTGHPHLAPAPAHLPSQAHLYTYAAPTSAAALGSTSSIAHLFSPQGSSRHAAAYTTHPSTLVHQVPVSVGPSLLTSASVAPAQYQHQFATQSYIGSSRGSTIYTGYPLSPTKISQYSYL
EPHA3 (human), sequence (P29320 whole entry, looked up): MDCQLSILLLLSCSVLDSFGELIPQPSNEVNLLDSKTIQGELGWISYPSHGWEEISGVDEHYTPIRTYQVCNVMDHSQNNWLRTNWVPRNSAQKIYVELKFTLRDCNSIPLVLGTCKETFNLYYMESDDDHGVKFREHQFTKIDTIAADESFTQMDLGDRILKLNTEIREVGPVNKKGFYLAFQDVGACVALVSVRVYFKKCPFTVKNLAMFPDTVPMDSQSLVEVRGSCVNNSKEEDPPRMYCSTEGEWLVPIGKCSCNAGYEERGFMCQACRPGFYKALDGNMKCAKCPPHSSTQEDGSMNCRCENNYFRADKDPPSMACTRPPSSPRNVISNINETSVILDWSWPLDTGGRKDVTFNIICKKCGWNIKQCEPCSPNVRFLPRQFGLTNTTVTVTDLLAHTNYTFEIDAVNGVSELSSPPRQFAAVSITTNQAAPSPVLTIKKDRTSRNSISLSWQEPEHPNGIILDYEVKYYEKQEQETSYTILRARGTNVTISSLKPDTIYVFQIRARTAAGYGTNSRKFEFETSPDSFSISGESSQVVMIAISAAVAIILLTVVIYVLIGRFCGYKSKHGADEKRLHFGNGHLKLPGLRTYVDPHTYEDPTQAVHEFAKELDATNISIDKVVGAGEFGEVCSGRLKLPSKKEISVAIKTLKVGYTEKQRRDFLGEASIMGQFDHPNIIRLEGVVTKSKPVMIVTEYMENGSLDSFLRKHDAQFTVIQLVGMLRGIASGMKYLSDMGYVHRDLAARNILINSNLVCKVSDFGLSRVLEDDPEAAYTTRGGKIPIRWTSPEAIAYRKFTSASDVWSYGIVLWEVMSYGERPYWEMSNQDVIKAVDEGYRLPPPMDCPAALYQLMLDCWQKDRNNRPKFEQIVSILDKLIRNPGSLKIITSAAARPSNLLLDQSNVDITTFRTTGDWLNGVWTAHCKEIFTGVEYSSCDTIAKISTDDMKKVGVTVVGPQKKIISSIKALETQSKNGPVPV
ADRBK2 (human), sequence (P35626 whole entry, looked up): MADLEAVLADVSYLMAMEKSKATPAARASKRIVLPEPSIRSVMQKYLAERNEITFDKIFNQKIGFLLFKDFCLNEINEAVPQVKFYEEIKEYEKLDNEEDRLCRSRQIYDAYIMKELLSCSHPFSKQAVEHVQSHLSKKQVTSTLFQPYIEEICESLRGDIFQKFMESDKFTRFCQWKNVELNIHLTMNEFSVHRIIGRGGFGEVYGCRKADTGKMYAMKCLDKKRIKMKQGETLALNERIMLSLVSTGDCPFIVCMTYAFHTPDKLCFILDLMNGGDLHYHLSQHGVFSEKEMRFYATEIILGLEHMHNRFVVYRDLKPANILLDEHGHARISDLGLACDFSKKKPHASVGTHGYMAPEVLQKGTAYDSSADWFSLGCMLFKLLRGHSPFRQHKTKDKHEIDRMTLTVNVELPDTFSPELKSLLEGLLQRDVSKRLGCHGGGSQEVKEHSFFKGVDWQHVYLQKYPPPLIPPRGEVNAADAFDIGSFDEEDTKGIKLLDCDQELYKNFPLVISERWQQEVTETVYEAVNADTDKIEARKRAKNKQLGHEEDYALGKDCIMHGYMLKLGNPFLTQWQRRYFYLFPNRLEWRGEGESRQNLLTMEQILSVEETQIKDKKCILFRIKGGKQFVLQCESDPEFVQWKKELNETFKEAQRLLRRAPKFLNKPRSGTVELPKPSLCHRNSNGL
PNCK (human), sequence (Q6P2M8 whole entry, looked up): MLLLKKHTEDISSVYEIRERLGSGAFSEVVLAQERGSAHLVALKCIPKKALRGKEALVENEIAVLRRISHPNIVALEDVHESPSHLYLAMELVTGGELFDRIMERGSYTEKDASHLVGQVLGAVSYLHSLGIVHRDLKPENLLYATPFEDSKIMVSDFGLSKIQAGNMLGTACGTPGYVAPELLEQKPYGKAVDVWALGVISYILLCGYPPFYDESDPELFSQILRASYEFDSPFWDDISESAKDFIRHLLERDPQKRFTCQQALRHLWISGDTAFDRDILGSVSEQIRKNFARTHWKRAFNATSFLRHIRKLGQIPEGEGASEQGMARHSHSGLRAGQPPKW
HIPK4 (human), sequence (Q8NE63 whole entry, looked up): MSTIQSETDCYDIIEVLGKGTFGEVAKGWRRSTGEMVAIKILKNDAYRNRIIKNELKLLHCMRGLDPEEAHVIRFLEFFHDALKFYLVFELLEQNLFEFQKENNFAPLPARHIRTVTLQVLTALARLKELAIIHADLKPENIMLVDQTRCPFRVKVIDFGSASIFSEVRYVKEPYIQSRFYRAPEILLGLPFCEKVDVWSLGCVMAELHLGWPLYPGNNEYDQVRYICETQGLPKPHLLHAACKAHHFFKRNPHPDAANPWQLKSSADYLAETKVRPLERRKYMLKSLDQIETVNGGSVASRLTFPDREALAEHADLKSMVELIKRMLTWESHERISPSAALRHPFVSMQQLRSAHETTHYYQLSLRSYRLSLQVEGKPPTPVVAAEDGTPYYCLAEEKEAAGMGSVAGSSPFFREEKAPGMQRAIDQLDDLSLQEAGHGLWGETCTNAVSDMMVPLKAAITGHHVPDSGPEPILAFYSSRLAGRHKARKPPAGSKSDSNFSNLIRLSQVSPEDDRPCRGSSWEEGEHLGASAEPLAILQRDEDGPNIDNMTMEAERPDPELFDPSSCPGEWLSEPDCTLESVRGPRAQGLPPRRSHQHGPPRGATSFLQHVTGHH
CAMK1D (human), sequence (Q8IU85 whole entry, looked up): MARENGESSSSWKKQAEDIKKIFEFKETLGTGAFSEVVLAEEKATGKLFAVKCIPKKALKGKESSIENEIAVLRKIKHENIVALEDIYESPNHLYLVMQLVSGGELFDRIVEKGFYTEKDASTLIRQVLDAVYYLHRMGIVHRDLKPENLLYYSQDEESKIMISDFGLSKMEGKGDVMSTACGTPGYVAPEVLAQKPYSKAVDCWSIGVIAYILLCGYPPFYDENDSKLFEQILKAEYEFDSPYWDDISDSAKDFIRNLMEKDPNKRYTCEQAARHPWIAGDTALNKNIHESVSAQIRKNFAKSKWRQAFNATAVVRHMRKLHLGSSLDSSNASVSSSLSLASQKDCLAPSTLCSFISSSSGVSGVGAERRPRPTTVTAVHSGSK

CSc1nc(-c2ccc(F)cc2)c(-c2ccnc(NC(C)c3ccccc3)c2)[nH]1 (configuration not stated)
residual activity (CAMK2B (human)): 89.2% | residual activity (LTK (human)): 83.6% | residual activity (NTRK2 (human)): 88.5% | residual activity (ADRBK2 (human)): 96.4% | residual activity (CSNK1G3 (human)): 58.4% | residual activity (CAMK1 (human)): 96.2% | residual activity (FGFR2 (human)): 95.2% | residual activity (EPHB2 (human)): 85.4% | residual activity (MAPK11 (human)): 41.7% | residual activity (STK3 (human)): 88.8% | residual activity (CDC42BPA (human)): 97.5% | residual activity (CSNK1G1 (human)): 67.2% | residual activity (CSNK1D (human)): 41.9% | residual activity (STK24 (human)): 113% | residual activity (EPHA7 (human)): 102% | residual activity (MAP3K2 (human)): 101% | residual activity (MYLK (human)): 100% | residual activity (HIPK1 (human)): 110% | residual activity (FRK (human)): 100% | residual activity (PNCK (human)): 92.9% | residual activity (HIPK4 (human)): 95.2% | residual activity (SLK (human)): 104% | residual activity (CAMK2A (human)): 96.5% | residual activity (PDPK1 (human)): 91.3% | residual activity (FER (human)): 97.2% | residual activity [1]: 96.5% | residual activity (CAMK1D (human)): 91.7% | residual activity (MAPKAPK5 (human)): 115% | residual activity (ERBB4 (human)): 98.4% | residual activity (CDK2 CCNA2 (human)): 96.8% | residual activity (RIPK2 (human)): 85.1% | residual activity (MAP4K2 (human)): 82.5% | residual activity (EPHA3 (human)): 82.5% | residual activity (TAOK2 (human)): 92.7% | residual activity (EPHA4 (human)): 93.1% | residual activity (CDK1 CCNB1 (human)): 106% | residual activity (SGK3 (human)): 103% | residual activity (MAPK14 (human)): 7.64% | residual activity (TGFBR1 (human)): 93.3% | residual activity (ULK1 (human)): 110% | residual activity (IGF1R (human)): 101%

Nc1nc(Nc2ccc(S(N)(=O)=O)cc2)nn1C(=O)c1c(F)cccc1F
residual activity (CAMK2B (human)): 99.7% | residual activity (LTK (human)): 85.8% | residual activity (NTRK2 (human)): 42.8% | residual activity (ADRBK2 (human)): 87.2% | residual activity (CAMK1 (human)): 90.4% | residual activity (FGFR2 (human)): 79.7% | residual activity (EPHB2 (human)): 96.1% | residual activity (MAPK11 (human)): 94% | residual activity (STK3 (human)): 34.3% | residual activity (CDC42BPA (human)): 97.5% | residual activity (CSNK1D (human)): 94.5% | residual activity (STK24 (human)): 76.9% | residual activity (EPHA7 (human)): 68.7% | residual activity (MAP3K2 (human)): 11.3% | residual activity (MYLK (human)): 80% | residual activity (HIPK1 (human)): 106% | residual activity (FRK (human)): 90.9% | residual activity (PNCK (human)): 107% | residual activity (HIPK4 (human)): 67.7% | residual activity (SLK (human)): 19.1% | residual activity (CAMK2A (human)): 104% | residual activity (MAPK12 (human)): 89.9% | residual activity (PDPK1 (human)): 92.3% | residual activity (FER (human)): 82% | residual activity [1]: 0.878% | residual activity (CAMK1D (human)): 97.7% | residual activity (MAPKAPK5 (human)): 80.3% | residual activity (ERBB4 (human)): 110% | residual activity (CDK2 CCNA2 (human)): 2.21% | residual activity (RIPK2 (human)): 77.8% | residual activity (MAP4K2 (human)): 58.4% | residual activity (EPHA3 (human)): 107% | residual activity (TAOK2 (human)): 8.92% | residual activity (EPHA4 (human)): 91.3% | residual activity (CDK1 CCNB1 (human)): 5.65% | residual activity (SGK3 (human)): 114% | residual activity (MAPK14 (human)): 97.8% | residual activity (TGFBR1 (human)): 104% | residual activity (ULK1 (human)): 62.5% | residual activity (IGF1R (human)): 86.9%

O=C(NC(NC(=S)Nc1ccc(F)c([N+](=O)[O-])c1)C(Cl)(Cl)Cl)C(c1ccccc1)c1ccccc1 (configuration not stated)
residual activity (CAMK2B (human)): 104% | residual activity (LTK (human)): 91.5% | residual activity (NTRK2 (human)): 97.7% | residual activity (ADRBK2 (human)): 98.3% | residual activity (CSNK1G3 (human)): 87.7% | residual activity (CAMK1 (human)): 93.1% | residual activity (FGFR2 (human)): 97.7% | residual activity (EPHB2 (human)): 101% | residual activity (MAPK11 (human)): 104% | residual activity (STK3 (human)): 107% | residual activity (CDC42BPA (human)): 111% | residual activity (CSNK1G1 (human)): 83.3% | residual activity (CSNK1D (human)): 105% | residual activity (STK24 (human)): 92.8% | residual activity (EPHA7 (human)): 109% | residual activity (MAP3K2 (human)): 96.8% | residual activity (MYLK (human)): 99.6% | residual activity (HIPK1 (human)): 108% | residual activity (FRK (human)): 103% | residual activity (PNCK (human)): 115% | residual activity (HIPK4 (human)): 104% | residual activity (SLK (human)): 95.2% | residual activity (CAMK2A (human)): 96% | residual activity (PDPK1 (human)): 112% | residual activity (FER (human)): 104% | residual activity [1]: 94% | residual activity (CAMK1D (human)): 99% | residual activity (MAPKAPK5 (human)): 102% | residual activity (ERBB4 (human)): 103% | residual activity (CDK2 CCNA2 (human)): 102% | residual activity (RIPK2 (human)): 97.4% | residual activity (MAP4K2 (human)): 111% | residual activity (EPHA3 (human)): 105% | residual activity (TAOK2 (human)): 103% | residual activity (EPHA4 (human)): 101% | residual activity (CDK1 CCNB1 (human)): 92.1% | residual activity (SGK3 (human)): 85.8% | residual activity (MAPK14 (human)): 101% | residual activity (TGFBR1 (human)): 92.6% | residual activity (ULK1 (human)): 99.1% | residual activity (IGF1R (human)): 93.7%

CCN1/C(=C/C(C)=O)Sc2ccc(OC)cc21
residual activity (CAMK2B (human)): 102% | residual activity (LTK (human)): 87.1% | residual activity (NTRK2 (human)): 104% | residual activity (ADRBK2 (human)): 82.9% | residual activity (CAMK1 (human)): 88.5% | residual activity (FGFR2 (human)): 97.1% | residual activity (EPHB2 (human)): 98.3% | residual activity (MAPK11 (human)): 84.5% | residual activity (CDC42BPA (human)): 85% | residual activity (CSNK1G1 (human)): 87.8% | residual activity (CSNK1D (human)): 54.2% | residual activity (STK24 (human)): 82.2% | residual activity (EPHA7 (human)): 95.8% | residual activity (MAP3K2 (human)): 101% | residual activity (MYLK (human)): 93.7% | residual activity (HIPK1 (human)): 95% | residual activity (FRK (human)): 99.5% | residual activity (PNCK (human)): 101% | residual activity (HIPK4 (human)): 94% | residual activity (SLK (human)): 86.8% | residual activity (CAMK2A (human)): 103% | residual activity (MAPK12 (human)): 99.8% | residual activity (PDPK1 (human)): 97.5% | residual activity (FER (human)): 87.9% | residual activity [1]: 113% | residual activity (CAMK1D (human)): 105% | residual activity (MAPKAPK5 (human)): 112% | residual activity (ERBB4 (human)): 101% | residual activity (CDK2 CCNA2 (human)): 89.7% | residual activity (RIPK2 (human)): 86.3% | residual activity (MAP4K2 (human)): 105% | residual activity (EPHA3 (human)): 89.9% | residual activity (TAOK2 (human)): 101% | residual activity (EPHA4 (human)): 95.5% | residual activity (CDK1 CCNB1 (human)): 93.2% | residual activity (SGK3 (human)): 93.4% | residual activity (MAPK14 (human)): 95.4% | residual activity (TGFBR1 (human)): 94.2% | residual activity (ULK1 (human)): 115% | residual activity (IGF1R (human)): 98.3%
